The record followed here is ChEMBL document CHEMBL1136155, “Search compounds with antimicrobial activity by applying molecular topology to selected quinolones” (Bioorg Med Chem Lett, 2003).

Calls of active or inactive are those of the source. The rule behind the calls is not given here.

In one series the test system is Pseudomonas aeruginosa. Put plainly: Antimicrobial activity against Pseudomonas aeruginosa 108;IA is Inactive. It is filed as functional, organism-based.
The next series concerns Escherichia coli. Put plainly: Antimicrobial activity against Escherichia coli;IA is Inactive. The series is classed as functional, organism-based.
Series [1] relates to Proteus mirabilis. Put plainly: The compound has antimicrobial activity against Proteus mirabilis; Active. It is filed as functional, organism-based.
Series [2] concerns Enterococcus faecalis. Put plainly: Antimicrobial activity against Enterococcus faecalis;IA is Inactive. It is filed as functional, organism-based.
The subject of series [3] is Staphylococcus aureus. Put plainly: Antimicrobial activity against Staphylococcus aureus;IA is Inactive. The series is classed as functional, organism-based.
Series [4] relates to Proteus mirabilis. Put plainly: Antimicrobial activity against Proteus mirabilis;IA is Inactive. The series is classed as functional, organism-based.
Another series relates to Klebsiella aerogenes. Put plainly: Activity against Enterobacter aerogenes. It is filed as functional.
Another series is described as follows: in vivo. The conditions noted are these: eutheria.
The test system of series [5] is Staphylococcus aureus. Put plainly: The compound has antimicrobial activity against Staphylococcus aureus; Active. The series is classed as functional, organism-based.
For series [6], the system named is Enterococcus faecalis. Put plainly: The compound has antimicrobial activity against Enterococcus faecalis; Active. The series is classed as functional, organism-based.

Consider `CC1=CC(=C(c2cc(C)c(O)c(CN(CC(=O)O)CC(=O)O)c2)c2ccccc2S(=O)(=O)O)C=C(CN(CC(=O)O)CC(=O)O)C1=O`, for which the result in the series with Pseudomonas aeruginosa, in the series on Escherichia coli, with Enterococcus faecalis [2] and in the series with Staphylococcus aureus [3] was inactive. For the same compound, the result in the series with Proteus mirabilis [1] was Active.
Regarding `Nc1ccc(C(=O)Nc2ccc3c(O)c(/N=N/c4ccc(C(=O)Nc5ccc(/N=N/c6ccc7cc(S(=O)(=O)O)cc(S(=O)(=O)O)c7c6)c(O)c5)cc4)c(S(=O)(=O)O)cc3c2)cc1`, the outcome in the series with Pseudomonas aeruginosa, with Proteus mirabilis [4], with Escherichia coli, in the series with Enterococcus faecalis [2] and with Staphylococcus aureus [3] was inactive.
For `OCC(O)C(OC1CO1)OC1CO1` (stereo not given), the outcome with Pseudomonas aeruginosa, in the series with Proteus mirabilis [4], in the series on Escherichia coli, in the series on Enterococcus faecalis [2] and in the series on Staphylococcus aureus [3] was inactive.
Regarding `CNn1cc(C(=O)O)c(=O)c2cc(F)c(N3CCN(C)CC3)cc21` [AMIFLOXACIN], the CMI in the series with Klebsiella aerogenes is 0.11 mg/L.
Same read-out and setting: as for `O=C(O)c1cn(C2CC2)c2cc(N3CCNCC3)c(F)cc2c1=O` [CIPROFLOXACIN], the figure is 0.03 mg/L; as for `CN1CCN(c2cc3c(cc2F)c(=O)c(C(=O)O)cn3-c2ccc(F)cc2)CC1` [DIFLOXACIN], 0.19 mg/L.
As usually defined, the bioavailability is the share of a dose that reaches the circulation, judged against a reference dose that is usually intravenous. A higher bioavailability goes with good availability. Compound `CCn1cc(C(=O)O)c(=O)c2cc(F)c(N3CCNCC3)nc21` [ENOXACIN] displayed a CMI in the series with Klebsiella aerogenes of 0.16 mg/L. The bioavailability in the series “in vivo” is 87.4%.
On to `CCn1cc(C(=O)O)c(=O)c2cc(F)c(N3CCNC(C)C3)c(F)c21` (stereo not given) [LOMEFLOXACIN], for which, in the series on Klebsiella aerogenes, the CMI turned out to be 0.16 mg/L. Further, the bioavailability in “in vivo” came to 98%.
For the compound `CCn1cc(C(=O)O)c(=O)c2ccc(C)nc21` [NALIDIXIC ACID], the result in the series on Pseudomonas aeruginosa and in the series on Escherichia coli was inactive. Moreover, the outcome in the series on Proteus mirabilis [1], with Staphylococcus aureus [5] and with Enterococcus faecalis [6] was Active. The compound also had a CMI in the series on Klebsiella aerogenes of 3 mg/L. The same compound yielded a bioavailability in “in vivo” of 60%.
Regarding `CCn1cc(C(=O)O)c(=O)c2cc(F)c(N3CCNCC3)cc21` [NORFLOXACIN], the CMI with Klebsiella aerogenes was 0.1 mg/L. The bioavailability in “in vivo” turned out to be 63%.
The like results for `CC1COc2c(N3CCN(C)CC3)c(F)cc3c(=O)c(C(=O)O)cn1c23` (stereo not given) [OFLOXACIN] were, in that order, 0.12 mg/L and 94.4%.
Regarding `CCn1cc(C(=O)O)c(=O)c2cc3c(cc21)OCO3` [OXOLINIC ACID], in the series with Klebsiella aerogenes, the CMI came out at 0.5 mg/L.
Compound `CCn1cc(C(=O)O)c(=O)c2cc(F)c(N3CCN(C)CC3)cc21` [PEFLOXACIN] gave a CMI in the series on Klebsiella aerogenes of 0.12 mg/L. Further, the bioavailability in the series “in vivo” was found to be 91.2%.
In turn, `CCn1cc(C(=O)O)c(=O)c2cnc(N3CCNCC3)nc21` [PIPEMIDIC ACID] came in with a CMI in the series on Klebsiella aerogenes of 2 mg/L.
For `CC1CN(c2cc3c(cc2F)c(=O)c(C(=O)O)cn3-c2ccc(F)cc2F)CCN1` (stereo not given) [TEMAFLOXACIN], the CMI with Klebsiella aerogenes was 0.16 mg/L. Further, the bioavailability in “in vivo” came out at 90%.
In turn, `NC1CCN(c2nc3c(cc2F)c(=O)c(C(=O)O)cn3-c2ccccc2F)C1` (stereo not given) [TUSOFLOXACINE] showed a CMI in the series with Klebsiella aerogenes of 0.05 mg/L.
